Data set [1] deals with T1, Phn(GHIJKL)2, PhnK nucleotide-binding site (Escherichia coli, UniProt P16678).
T1 construct: hetero-dodecamer, 327 kDa, expressed in E. coli Lemo21 from pRBS01 (phn genes from pBW120); C-terminal TEV-2xStrep-tag on PhnK, TEV-treated for wild-type cryo-EM sample; with Alpha-D-ribose 1-methylphosphonate 5-triphosphate synthase subunit PhnL; Alpha-D-ribose 1-methylphosphonate 5-phosphate C-P lyase; Alpha-D-ribose 1-methylphosphonate 5-triphosphate synthase subunit PhnI; Alpha-D-ribose 1-methylphosphonate 5-triphosphate synthase subunit PhnH
As to the kind of experiment: cryo-EM structure, […] Å. The settings on record: ATP turnover (1.5 mM ATP, 6 mM MgCl2, 37 °C, 15 s); post-hydrolysis state, ADP + Pi in PhnK site.

Data set [2] concerns the target Phn(GHIJKL)2, PhnL nucleotide-binding site (Escherichia coli, UniProt P16679). The settings on record: ATP turnover (1.5 mM ATP, 6 mM MgCl2, 37 °C, 15 s); both PhnL sites, dimer open; PhnK holds ADP + Pi.
Data set [3] concerns the target T2, Phn(GHIJKL)2 (ATPase assay) (Escherichia coli, UniProt P16678+P16679).
T2 construct: gene phnK
The settings on record: 1 or 5 mM ATP, Mg2+, pH 7.5, 37 °C (coupled assay); hydrolysis by PhnK and PhnL.

The target of data set [4] is T3, Phn(GHIJKL)2 (ATPase assay) (Escherichia coli, UniProt P16678+P16679, P16678:E171Q).
T3 construct: gene phnK
The settings on record: 1 or 5 mM ATP, Mg2+, pH 7.5, 37 °C (coupled assay); hydrolysis by PhnK and PhnL.

The target in data set [5] is T4, Phn(GHIJK)2 closed, Zn2+ site at the PhnI-PhnJ interface (His site) (Escherichia coli, UniProt P16687+P16688).
T4 construct: class without PhnL density from the purified wild-type Phn(GHIJKL)2 sample (pRBS01, TEV-treated PhnK Strep-tag); with Alpha-D-ribose 1-methylphosphonate 5-triphosphate synthase subunit PhnH
As to the kind of experiment: cryo-EM structure, […] Å. The format is binding. Particulars: co-purified ligand modelled from density, identity not confirmed by mass spectrometry, absent in open state.

Data set [6] deals with T5, Phn(GHIJKL)2, PhnK nucleotide-binding site (Escherichia coli, UniProt P16678, E171Q).
T5 construct: hetero-dodecamer, 327 kDa, expressed in E. coli Lemo21 from pRBS01 (phn genes from pBW120); C-terminal TEV-2xStrep-tag on PhnK, TEV-treated for wild-type cryo-EM sample; with Alpha-D-ribose 1-methylphosphonate 5-triphosphate synthase subunit PhnL; Alpha-D-ribose 1-methylphosphonate 5-phosphate C-P lyase; Alpha-D-ribose 1-methylphosphonate 5-triphosphate synthase subunit PhnI; Alpha-D-ribose 1-methylphosphonate 5-triphosphate synthase subunit PhnH
As to the kind of experiment: cryo-EM structure, […] Å. The settings on record: 5 mM AMPPNP, 5 mM MgCl2, pH 7.5; both PhnK sites, closed dimer; PhnL empty.

Data set [7] concerns the molecule itself. The data set is described as follows: cryo-EM structure; wild type Phn(GHIJKL)2 purified as a complex with ATP and EDTA, then 1.5 mM ATP and 6 mM MgCl2, 15 s at 37 °C (ATP turnover); 3D classes: Phn(GHIJKL)2 with ADP + Pi, Phn(GHIJK)2 closed, Phn(GHIJK)2 open.
Data set [8] concerns the molecule itself. The data set is described as follows: cryo-EM structure; Phn(GHIJKL)2-PhnK E171Q co-expressed from the phnGHIJKLMNOP plasmid and purified as a complex on StrepTrap with AMPPNP; 2.5 mg/mL; 25 mM HEPES/KOH pH 7.5, 125 mM KCl, 5 mM MgCl2, 5 mM BME.

Turning to `Nc1ncnc2c1ncn2[C@@H]1O[C@H](COP(=O)(O)OP(=O)(O)O)[C@@H](O)[C@H]1O` [ADP], the “cryo-EM structure, 1.9 Å” value in data set [1] was “contains ADP and Pi and consequently represents a true ATP post-hydrolysis state”.

Consider `Nc1ncnc2c1ncn2[C@@H]1O[C@H](COP(=O)(O)OP(=O)(O)OP(=O)(O)O)[C@@H](O)[C@H]1O` [ATP], for which the “cryo-EM structure, 1.9 Å” value in data set [2] is “binding of ATP to both nucleotide binding sites in PhnL”. Besides, the figures for the “ion exchange of nucleotides; coupled pyruvate kinase / lactate dehydrogenase ATP” value in data set [3] and in data set [4] were “clear ATPase activity for the wildtype PhnGHIJKL complex” and “we observed a significantly reduced ATPase activity”, respectively. `O=P(O)(O)OC[C@H]1O[C@@H]2OP(=O)(O)O[C@@H]2[C@@H]1O` [5-phospho-α-D-ribose-1,2-cyclic-phosphate]: the “cryo-EM structure, 2.0 Å” value in data set [5] is “we were able to model the ligand as 5-phospho-α-D-ribose-1,2-cyclic-phosphate”. On to `Nc1ncnc2c1ncn2[C@@H]1O[C@H](COP(=O)(O)OP(=O)(O)NP(=O)(O)O)[C@@H](O)[C@H]1O` [AMPPNP], for which the “cryo-EM structure, 2.1 Å” value in data set [6] is “clear density for AMPPNP allowed for modelling of a nucleotide in both active site pockets”.

B1: PhnL (natural protein, Escherichia coli)
chain: MINVQNVSKTFILHQQNGVRLPVLNRASLTVNAGECVVLHGHSGSGKSTLLRSLYANYLPDEGQIQIKHGDEWVDLVTAPARKVVEIRKTTVGWVSQFLRVIPRISALEVVMQPLLDTGVPREACAAKAARLLTRLNVPERLWHLAPSTFSGGEQQRVNIARGFIVDYPILLLDEPTASLDAKNSAAVVELIREAKTRGAAIVGIFHDEAVRNDVADRLHPMGASS
notes: PhnL, non-transporter ABC protein of the Escherichia coli phn operon; untagged; β hairpin extension residues 7-14; Identified in the complex by mass spectrometry and by the EM density; also called PhnL subunit; ABC module PhnL; source: E. coli Lemo21 (pRBS01 or pRBS01-PhnK E171Q), co-expressed, purified as part of the complex through Strep-tagged PhnK
As to B1, the binding result in data set [7] is “binds”.

B2: PhnK E171Q with a C-terminal TEV-2xStrep-tag (natural protein, Escherichia coli)
chain: MNQPLLSVNNLTHLYAPGKGFSDVSFDLWPGEVLGIVGESGSGKTTLLKSISARLTPQQGEIHYENRSLYAMSEADRRRLLRTEWGVVHQHPLDGLRRQVSAGGNIGERLMATGARHYGDIRATAQKWLEEVEIPANRIDDLPTTFSGGMQQRLQIARNLVTHPKLVFMDQPTGGLDVSVQARLLDLLRGLVVELNLAVVIVTHDLGVARLLADRLLVMKQGQVVESGLTDRVLDDPHHPYTQLLVSSVLQN
notes: PhnK, non-transporter ABC protein of the Escherichia coli phn operon, with the Walker B mutation E171Q; also called Phn(GHIJKL)2-PhnK E171Q; not shown: 2xStrep-tag (after a TEV site), C-terminal, kept
Consider B2, for which, in data set [8], the binding result is “binds”.

B3: PhnK wild type, TEV-2xStrep-tag removed with TEV protease (natural protein, Escherichia coli)
chain: MNQPLLSVNNLTHLYAPGKGFSDVSFDLWPGEVLGIVGESGSGKTTLLKSISARLTPQQGEIHYENRSLYAMSEADRRRLLRTEWGVVHQHPLDGLRRQVSAGGNIGERLMATGARHYGDIRATAQKWLEEVEIPANRIDDLPTTFSGGMQQRLQIARNLVTHPKLVFMDEPTGGLDVSVQARLLDLLRGLVVELNLAVVIVTHDLGVARLLADRLLVMKQGQVVESGLTDRVLDDPHHPYTQLLVSSVLQN
notes: PhnK, non-transporter ABC protein of the Escherichia coli phn operon; Residues of the TEV site probably stay at the C-terminus after cleavage; also called wild type PhnK; not shown: 2xStrep-tag (after a TEV site), C-terminal, cleaved
Take B3: in data set [7], the binding result was “binds”.

B4: PhnI (natural protein, Escherichia coli)
chain: MYVAVKGGEKAIDAAHALQESRRRGDTDLPELSVAQIEQQLNLAVDRVMTEGGIADRELAALALKQASGDNVEAIFLLRAYRTTLAKLAVSEPLDTTGMRLERRISAVYKDIPGGQLLGPTYDYTHRLLDFTLLANGEAPTLTTADSEQQPSPHVFSLLARQGLAKFEEDSGAQPDDITRTPPVYPCSRSSRLQQLMRGDEGYLLALAYSTQRGYGRNHPFAGEIRSGYIDVSIVPEELGFAVNVGELLMTECEMVNGFIDPPGEPPHFTRGYGLVFGMSERKAMAMALVDRALQAPEYGEHATGPAQDEEFVLAHADNVEAAGFVSHLKLPHYVDFQAELELLKRLQQEQNHG
notes: PhnI, subunit of carbon-phosphorus lyase, Escherichia coli phn operon; untagged, encoded on the expression plasmid; Whole phn genes amplified from pBW120; also called PhnI subunit of the C–P lyase core complex
As to B4, in data set [7], the binding result was “binds”.

Source of the values: article PMC9947105, “Structural remodelling of the carbon–phosphorus lyase machinery by a dual ABC ATPase” (Nature Communications, 2023).
